Several values for one entry are separate records, joined by “and”; a condition that tells them apart may be missing. Equal values may be shown once. Residues, ends and D or L forms follow the SMILES beside them.
Tests used:
[1] = system: K. pneumoniae ATCC 700603; assay: Time-kill assay; format: cell-based, Klebsiella pneumoniae
Description: Time-kill assays were done in tubes (in 1.5 mL of LB) and antibiotics at the 1 ×, 2 ×, 4 × and 8 × MIC. Tubes were inoculated (5 × 10^6 CFU/mL) with MRSA USA 300 and K. pneumoniae ATCC 700603 and incubated at 37 °C under shaking. Serial dilutions of the cultures were plated at each desired time point (0, 1, 3, 6, and 24 h), using a multichannel pipette as follows: in line 1 of a 96-well plate, 100 µL of bacterial suspension was added, while 90 µL of 0.9% sterile saline per well was added to the other lines. At selected time points, 100 µL of bacterial suspension was transferred from the time-kill assay plate to the first line. The wells were further diluted 1 in 10 (0.9% saline) for the appropriate number of dilutions and 10 μL of each dilution was spotted in duplicate onto MH agar plates, then incubated overnight at 37°C. The colonies in each spot were counted and used to calculate the number of viable CFU/mL remaining in the original culture by considering the dilution factors.

[2] = system: MRSA USA 300; assay: Transmission electron microscopy; format: cell-based, Staphylococcus aureus; conditions: 2 × MIC, 60 min
Description: The processing method of the samples for transmission electron microscopy (TEM) was the same as the treatment for SEM. The samples were then prefixed with 2.5% glutaraldehyde at 4°C overnight, post-fixed with osmium tetroxide for 70 min, and washed twice with PBS (pH 7.4). Subsequently, the samples were dehydrated for 10 min in a graded ethanol series (30, 50, 70, 90, and 100%) followed by 10 min in a mixture of absolute ethanol and acetone (1:1, v/v) and 10 min in absolute acetone. The specimens were transferred to a mixture of absolute acetone and epoxy resin (1:1, v/v) for 30 min and then to pure epoxy resin overnight at a constant temperature. Finally, the samples were sectioned using an ultramicrotome, stained with uranyl acetate and lead citrate, and then observed by TEM (Hitachi H-7650, Japan).

[3] = system: MRSA; format: cell-based, Staphylococcus aureus
Description: (§1) Bacteria were cultivated in Luria-Bertani (LB) broth.

[4] = system: MRSA USA 300; assay: Membrane permeability, SYTOX Green; format: cell-based, Staphylococcus aureus
Description: Fluorescent probe SYTOX^TM Green (Invitrogen/ Life Technologies, S7020) was used to analyze the effect of HT2 and RI-HT2 on membrane permeability of MRSA USA 300 and K. pneumoniae ATCC 700603 as described elsewhere. SYTOX^TM Green is a DNA binding dye that is fluorescent when bound to nucleic acids and only enters cells with compromised plasma membranes. MRSA USA 300 and K. pneumoniae ATCC 700603 were cultured in LB broth to mid log phase at 37 °C and washed with PBS and resuspended (OD595 ≈ 0.1) in the same buffer. SYTOX^TM Green was added into the cell suspension with a final concentration of 5 μM and being kept in dark for 20 min. 98 µL pre-treated cell suspension was transferred into wells of 96-well glass black plates. Then, 2 µL of compound or DMSO were added to initiate the reaction. The final concentrations of HT2 and RI-HT2 were 1 ×, 2 ×, 4 × and 8 × MIC. Fluorescence strength was measured with excitation/emission wavelength of 485/528 nm every 5 min for 60 min.

[5] = system: Gram-negative bacterial strains; format: cell-based; conditions: A. baumannii and Klebsiella pneumoniae
Description: as §1

**Q.** With `CC[C@H](C)[C@H](NC(=O)[C@H](CCCNC(=N)N)NC(=O)[C@H](CCCNC(=N)N)NC(=O)[C@H](CC(C)C)NC(=O)[C@H](Cc1ccccc1)NC(=O)[C@@H](N)CCCNC(=N)N)C(=O)N[C@@H](Cc1ccccc1)C(=O)N[C@@H](Cc1ccccc1)C(=O)N[C@@H](Cc1ccccc1)C(=O)N[C@@H](Cc1ccccc1)C(N)=O` [HT2] (H-RFLRRIFFFF-NH2) as the molecule, how does the “viable count, time-kill” value ([1]; 8 × MIC, 1 h) read?
**A.** 520000 CFU/mL and 540000 CFU/mL and 550000 CFU/mL

**Q.** What about the “viable count, time-kill” value ([1]; 8 × MIC, 3 h) of the same molecule?
**A.** 500 CFU/mL and 700 CFU/mL

**Q.** What about the “viable count, time-kill” value ([1]; 8 × MIC, 24 h) of the same molecule?
**A.** 100 CFU/mL and 200 CFU/mL

**Q.** And the “killing outcome (in words)” value ([1]; 8 × MIC, after 24 h)?
**A.** cannot completely be killed

**Q.** What about the “viable count, time-kill” value ([1]; MIC, 0 h) of the same molecule?
**A.** 3000000 CFU/mL and 3500000 CFU/mL and 3400000 CFU/mL

**Q.** And the “viable count, time-kill” value ([1]; MIC, 1 h)?
**A.** 400000 CFU/mL and 330000 CFU/mL and 410000 CFU/mL

**Q.** What about the “viable count, time-kill” value ([1]; MIC, 6 h) of the same molecule?
**A.** 430000 CFU/mL and 570000 CFU/mL and 480000 CFU/mL

**Q.** What about the “viable count, time-kill” value ([1]; MIC, 24 h) of the same molecule?
**A.** 51000000 CFU/mL and 58000000 CFU/mL and 54000000 CFU/mL

**Q.** And the “membrane and intracellular structure by TEM (in words)” value [2]?
**A.** cytoplasmic membranes became blurred and separated

**Q.** And the “MICs against Gram-positive bacterial strains” value [3]?
**A.** 1.57 to 3.13 µM

**Q.** What about the Fluorescence intensity ([4]; 2 × MIC, time 25 min) of the same molecule?
**A.** 31855 and 32475 and 30920

**Q.** And the Fluorescence intensity ([4]; 2 × MIC, time 30 min)?
**A.** 32738 and 33363 and 31902

**Q.** And the Fluorescence intensity ([4]; 2 × MIC, time 35 min)?
**A.** 33433 and 34141 and 32365

**Q.** What about the Fluorescence intensity ([4]; 2 × MIC, time 40 min) of the same molecule?
**A.** 33952 and 34791 and 32993

**Q.** What about the Fluorescence intensity ([4]; 2 × MIC, time 45 min) of the same molecule?
**A.** 34234 and 35153 and 33304

**Q.** What about the Fluorescence intensity ([4]; 2 × MIC, time 50 min) of the same molecule?
**A.** 34616 and 35530 and 33726

**Q.** And the Fluorescence intensity ([4]; 2 × MIC, time 55 min)?
**A.** 35021 and 36015 and 33983

**Q.** What about the Fluorescence intensity ([4]; 2 × MIC, time 60 min) of the same molecule?
**A.** 35210 and 36080 and 33852

**Q.** And the Fluorescence intensity ([4]; 4 × MIC, time 25 min)?
**A.** 58334 and 57993 and 60104

**Q.** And the Fluorescence intensity ([4]; 4 × MIC, time 30 min)?
**A.** 59686 and 59179 and 61418

**Q.** And the Fluorescence intensity ([4]; 4 × MIC, time 35 min)?
**A.** 60470 and 60307 and 62172

**Q.** And the Fluorescence intensity ([4]; 4 × MIC, time 40 min)?
**A.** 61373 and 61097 and 62778

**Q.** What about the Fluorescence intensity ([4]; 4 × MIC, time 45 min) of the same molecule?
**A.** 61952 and 61758 and 63164

**Q.** What about the Fluorescence intensity ([4]; 4 × MIC, time 50 min) of the same molecule?
**A.** 62152 and 62388 and 63395

**Q.** And the Fluorescence intensity ([4]; 4 × MIC, time 55 min)?
**A.** 62374 and 62948 and 63676

**Q.** What about the Fluorescence intensity ([4]; 4 × MIC, time 60 min) of the same molecule?
**A.** 62761 and 62954 and 64070

**Q.** And the Fluorescence intensity ([4]; 8 × MIC, time 0 min)?
**A.** 1486

**Q.** What about the Fluorescence intensity ([4]; 8 × MIC, time 25 min) of the same molecule?
**A.** 61022 and 63005 and 63531

**Q.** What about the Fluorescence intensity ([4]; 8 × MIC, time 30 min) of the same molecule?
**A.** 61916 and 63588 and 64175

**Q.** What about the Fluorescence intensity ([4]; 8 × MIC, time 35 min) of the same molecule?
**A.** 62425 and 64473 and 64696

**Q.** What about the Fluorescence intensity ([4]; 8 × MIC, time 40 min) of the same molecule?
**A.** 62708 and 64561 and 64714

**Q.** What about the Fluorescence intensity ([4]; 8 × MIC, time 45 min) of the same molecule?
**A.** 62984 and 64891 and 65072

**Q.** And the Fluorescence intensity ([4]; 8 × MIC, time 50 min)?
**A.** 63293 and 64293 and 63594

**Q.** What about the Fluorescence intensity ([4]; 8 × MIC, time 55 min) of the same molecule?
**A.** 63589 and 64553 and 65531

**Q.** What about the Fluorescence intensity ([4]; 8 × MIC, time 60 min) of the same molecule?
**A.** 63666 and 65987 and 65753

**Q.** And the Fluorescence intensity ([4]; MIC, time 0 min)?
**A.** 1304 and 1201 and 1387

**Q.** What about the Fluorescence intensity ([4]; MIC, time 25 min) of the same molecule?
**A.** 17216 and 17215 and 16315

**Q.** What about the Fluorescence intensity ([4]; MIC, time 30 min) of the same molecule?
**A.** 17367 and 17359 and 16618

**Q.** What about the Fluorescence intensity ([4]; MIC, time 35 min) of the same molecule?
**A.** 17590 and 17525 and 16584

**Q.** What about the Fluorescence intensity ([4]; MIC, time 40 min) of the same molecule?
**A.** 17600 and 17633 and 16680

**Q.** And the Fluorescence intensity ([4]; MIC, time 45 min)?
**A.** 17644 and 17567 and 16788

**Q.** And the Fluorescence intensity ([4]; MIC, time 50 min)?
**A.** 17792 and 17686 and 16728

**Q.** What about the Fluorescence intensity ([4]; MIC, time 55 min) of the same molecule?
**A.** 17738 and 17641 and 16766

**Q.** And the Fluorescence intensity ([4]; MIC, time 60 min)?
**A.** 17754 and 17734 and 16661

**Q.** And the “time to maximum SYTOX Green fluorescence intensity” value ([4]; different concentrations)?
**A.** ≤ 10 min

**Q.** What about the “MICs against Gram-negative bacterial strains, such as A. baumannii and Klebsiella pneumoniae” value [5] of the same molecule?
**A.** 6.25 µM
